Assay results taken from patent US20250129102A1, “CRYSTAL FORM OF PYRIMIDINE HETEROCYCLIC COMPOUND AND PREPARATION METHOD THEREFOR” (D3 Bio (Wuxi) Co., Ltd., priority 2021, published 2025).

Experiments:
Type in all cases: in vitro ADME
[1] = Metabolic stability in hepatocytes, human; conditions: cryopreserved hepatocytes
Description: Metabolic stabilities of assay compound in hepatocytes of CD-1 mice, SD rats, beagle dogs, cynomolgus monkeys, and human were assayed, respectively.
Several 96-well sample precipitation plates were prepared and named T0, T15, T30, T60, T90, T120, T0-MC, T120-MC and blank substrates, respectively. The recovery medium and incubation medium were taken out in advance and placed in a 37° C. water bath for pre-heating. Cryopreserved hepatocytes were removed from the liquid nitrogen tank and immediately immersed in a 37° C. water bath (approximately 90 seconds). After the cryopreserved hepatocytes had thawed and loosened, they were poured into a centrifuge tube containing 40 mL of recovery medium, and the tube was gently inverted to allow the cells to be resuspended in the recovery medium. The cells were centrifuged at 100×g at room temperature for 5 min, and the supernatant was removed. The hepatocytes were resuspended in an appropriate volume of incubation medium, and the cell viability was calculated by Trypan Blue staining method. 198 μL of hepatocyte suspension (0.51×10^6 cells/mL) was added to the preheated incubation plate. For the culture medium control group, 198 μL of hepatocyte-free incubation medium was added to T0-MC and T120-MC incubation plate. All incubation plates were pre-incubated in a 37° C. incubator for 10 minutes. Then 2 μL of working solutions of the assay sample and the control compound were added, respectively, and the mixture was mixed well. The incubation plate was immediately put into the shaker in the incubator, and the reaction was initiated while starting the timer. For each time point of each compound, 2 duplicate samples were prepared. The incubation conditions were 37° C., saturated humidity, and 5% CO2. […] All samples were mixed well and analyzed by LC/MS/MS.

[2] = In vitro stability in liver microsomes, CD-1 mice; conditions: mouse, CD-1 mice liver microsomes, 0.5 mg/mL
Description: (§1) Metabolic stabilities of the assay compound in liver microsomes of CD-1 mice, SD rats, beagle dogs, cynomolgus monkeys, and human were assayed, respectively.
(§2) Two 96-well incubation plates were prepared and named T60 incubation plate and NCF60 incubation plate, respectively. 445 μL of microsomal working solutions (liver microsomal protein concentration of 0.56 mg/mL) were added to the T60 incubation plate and the NCF60 incubation plate, respectively, and then the above incubation plates were pre-incubated in a 37° C. water bath for about 10 minutes.
(§3) After the pre-incubation, 5 μL of working solutions of the assay sample or the control compound were added to the T60 incubation plate and the NCF60 incubation plate, respectively, and the mixture was mixed well. 50 μL of potassium phosphate buffer was added to each well of the NCF60 incubation plate to initiate the reaction. 180 μL of stop solution (200 ng/mL tolbutamide and 200 ng/mL labetalol in acetonitrile) and 6 uL of NADPH regeneration system working solution were added to the T0 stop plate, and 54 μL of sample was transferred from T60 incubation plate to T0 stop plate (generation of T0 sample). The reaction was initiated by adding 44 μL of NADPH regeneration system working solution to each well of the T60 incubation plate. Only 54 μL of microsome working solution, 6 uL of NADPH regeneration system working solution and 180 μL of stop solution were added to the Blank plate. Therefore, in samples of the assay compound or the control compound, the final reaction concentration of compound, testosterone, diclofenac and propafenone was 1 μM, the concentration of liver microsomes was 0.5 mg/mL, and the final reaction concentrations of DMSO and acetonitrile in the reaction system were 0.01% (v/v) and 0.99% (v/v), respectively. […] All samples were injected and analyzed by liquid chromatography-tandem mass spectrometry.

[3] = In vitro stability in liver microsomes, cynomolgus monkeys; conditions: cynomolgus monkey, 0.5 mg/mL
Description: as §1, §2, §3

[4] = Stability in plasma, human; conditions: 2 μM, 37° C.
Description: Stabilities of the assay compound in plasma of CD-1 mice and human were assayed, respectively. Cryopreserved plasma was thawed for 10 to 20 min. After the plasma was completely thawed, it was placed in a centrifuge and centrifuged at 3220×g for 5 min to remove any suspended matter and sediment in the plasma. 96-well incubation plates were prepared and named T0, T10, T30, T60, T120, respectively. 98 μL of blank plasmas of mouse, rat, canine, monkey and human were added to the corresponding incubation plates, then 2 μL of working solutions of the compound or the control compound were added to the corresponding plates in duplicate. All samples were incubated in a 37° C. water bath. The final incubation concentrations of the compound and the control compounds bisacodyl, enalapril maleate, procaine and probanthine were 2 μM, and the final organic phase content was 2.0%. At the end of incubation for each time point, the corresponding incubation plate was removed and 400 μL of a solution of 200 ng/mL of tolbutamide and labetalol in acetonitrile was added to each corresponding sample well to precipitate the protein. All sample plates were sealed and shaken well, and then centrifuged at 3220×g for 20 minutes. 50 μL of supernatant was taken out and diluted in 100 μL of ultrapure water. All samples were mixed well and then analyzed by LC/MS/MS.

C=C(F)C(=O)N1CCN(c2nc(OC[C@@]34CCCN3C[C@H](F)C4)nc3c2CO[C@H](c2c(F)c(N)cc(C)c2C(F)(F)F)C3)C[C@@H]1CC#N [Compound of formula (I)]
half-life at 1 μM [1]: 99.5 min | hepatocyte CLint at 1 μM ([1]; read-out: CLint(hep)): 13.9 µL/min/1e6 cells | CLint scaled at 1 μM ([1]; read-out: CLint(liver)): 2.32 L/h/kg | CLint scaled at 1 μM [2]: 67.6 L/h/kg | half-life at 1 μM [2]: 4.9 min | microsomal CLint at 1 μM ([2]; read-out: CLint(hep)): 285 µL/min/mg | CLint scaled at 1 μM [3]: 18.2 L/h/kg | half-life at 1 μM [3]: 6.2 min | microsomal CLint at 1 μM ([3]; read-out: CLint(hep)): 225 µL/min/mg | Detection of assay compound content within 120 min [4]: 93%
